Assay results published in US12578350B2, “System and method for coagulation and platelet function related data collection and analysis” (FloBio LLC, priority 2024, dated 2026).

Test system: fibrin accumulation
Test: Microfluidic whole blood flow assay over collagen/tissue factor reaction zone, fibrin signal, drug spiked in vitro
Type: cell-based, human
Conditions: blood sample treated with different doses, in relation to HBS control; 37° C. and 21° C.; FIGS. 17C-17D
Text: The drug in question can be mixed with a small bolus of patient blood outside the device (in vitro), and the drug spiked blood then analyzed on the system. […] Fresh whole blood (used within minutes of venous draw), AF594 fibrinogen (fibrinogen from human plasma, Alexa FluorTM 594 conjugate) and platelet MCA2588A488 (mouse anti-human CD61, Alexa FluorTM 488 conjugate) can be added to the device 100 and the direct fluorescence signals can be analyzed. […] The result is the production of direct fluorescent signals in green (platelets) and red (fibrin) where the measured fluorescent intensity (FI) directly correlates with the accumulation of platelets and fibrin. The fluorescent signal intensity can be directly measured at each clot site over time to produce clot response curves for both fibrin and platelets. Fluorescence signal (intensity) can be extracted for each clot and plotted for each assay condition. Two signals are generated in the test as fluorescence intensity (FI) for fibrin and platelets accumulating in the region of interest on the device. […] The optimal time at which to select data for analyses is generally determined to be the time of the maximum rate of stable signal development, which typically corresponds to the half-max or T50 time point of the assay.

Question: Which “fibrin signal with increasing dose” value does the source give for `O=C(NC[C@H]1CN(c2ccc(N3CCOCC3=O)cc2)C(=O)O1)c1ccc(Cl)s1` [Rivaroxaban] here?
Answer: decreases
